Test results reported in patent publication US8044079B2, “Substituted oxindole derivatives, medicaments containing said derivatives and use thereof” (Abbott GmbH & Co. KG, priority 2005, dated 2011).

What follows are compounds tested against T1, human vasopressin V1b receptor (Homo sapiens, UniProt P47901) (assay: Vasopressin V1b receptor binding test). Conditions: membranes of CHO-K1 cells with human V1b receptor, displacement of 1.5 nM 3H-AVP; for compounds with more than one stereogenic center the diastereomer with greater affinity.
T1 construct: expressed in transfected cells; host or cells: CHO-K1 (cell line hV1b_3H2_CHO), membrane preparation
T1 sequence (P47901 1-424): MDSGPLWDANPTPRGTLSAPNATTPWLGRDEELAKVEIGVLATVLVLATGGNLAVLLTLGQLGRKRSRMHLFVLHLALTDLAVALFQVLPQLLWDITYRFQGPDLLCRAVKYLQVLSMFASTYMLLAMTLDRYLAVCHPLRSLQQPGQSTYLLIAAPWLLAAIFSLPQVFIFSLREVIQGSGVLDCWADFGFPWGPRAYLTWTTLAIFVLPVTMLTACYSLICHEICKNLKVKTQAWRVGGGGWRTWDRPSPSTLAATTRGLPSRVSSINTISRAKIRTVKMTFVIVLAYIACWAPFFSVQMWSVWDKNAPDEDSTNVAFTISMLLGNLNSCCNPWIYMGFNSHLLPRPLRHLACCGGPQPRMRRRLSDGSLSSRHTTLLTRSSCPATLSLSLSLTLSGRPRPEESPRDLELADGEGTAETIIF
Procedure, shortened: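 Affinity constants (Ki) came from nonlinear regression of triplicate scintillation counts after filtration separated bound from free radioligand. Compounds competed at human V1b membranes for 60 min, room temperature, in pH 7.4 tris/MgCl2/BSA buffer with 2% DMSO; 1 μM AVP defined nonspecific binding.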

| Ki | Structure (SMILES) |
| --- | --- |
| 10 to 100 nM | COc1ccc(S(=O)(=O)N2C(=O)C(c3cc(CN4CCN(CCO)CC4)ccc3OC)(N3CCC[C@H]3c3ncc(C)o3)c3cc(Cl)ccc32)cc1 (stereo partly drawn) [Example 233, 5-Chloro-3-{5-[4-(2-hydroxyethyl)piperazin-1-ylmethyl]-2-methoxyphenyl}-1-(4-methoxybenzenesulfonyl)-3-[(S)-2-(5-methyloxazol-2-yl)-pyrrolidin-1-yl]-1,3-dihydroindol-2-one] |
| 10 to 100 nM | COc1ccc(S(=O)(=O)N2C(=O)C(c3cc(CN(C)C)ccc3OC)(N3CCC[C@H]3c3ncc(C)o3)c3cc(Cl)ccc32)cc1 (stereo partly drawn) [Example 234, 5-Chloro-3-(5-dimethylaminomethyl-2-methoxyphenyl)-1-(4-methoxybenzenesulfonyl)-3-[(S)-2-(5-methyloxazol-2-yl)-pyrrolidin-1-yl]-1,3-dihydroindol-2-one] |
| 10 to 100 nM | COc1ccc(S(=O)(=O)N2C(=O)C(c3cc(CN4CCN(C)CC4)ccc3OC)(N3CCC[C@H]3c3ncc(C)o3)c3cc(Cl)ccc32)cc1 (stereo partly drawn) [Example 235, 5-Chloro-1-(4-methoxybenzenesulfonyl)-3-[2-methoxy-5-(4-methylpiperazin-1-ylmethyl)phenyl]-3-[(S)-2-(5-methyloxazol-2-yl)-pyrrolidin-1-yl]-1,3-dihydroindol-2-one] |
